Assay results from patent US7964629B2, “Inhibitors of isoprenylcysteine carboxyl methyltransferase” (Duke Universtiy, priority 2005, dated 2011).

Columns and labels:
[1] = biological target: FTase (Homo sapiens, UniProt P49354+P49356); test: FTase inhibition (results not shown); type: biochemical; details: concentrations up to 50 μM
[2] = biological target: T1, Rce1 protease (Homo sapiens, UniProt Q9Y256); test: Rce1 protease inhibition (results not shown); type: biochemical; details: concentrations up to 50 μM
T1 construct: made in house; host or cells: Sf9 insect cells; membranes
T1 sequence (Q9Y256 1-329): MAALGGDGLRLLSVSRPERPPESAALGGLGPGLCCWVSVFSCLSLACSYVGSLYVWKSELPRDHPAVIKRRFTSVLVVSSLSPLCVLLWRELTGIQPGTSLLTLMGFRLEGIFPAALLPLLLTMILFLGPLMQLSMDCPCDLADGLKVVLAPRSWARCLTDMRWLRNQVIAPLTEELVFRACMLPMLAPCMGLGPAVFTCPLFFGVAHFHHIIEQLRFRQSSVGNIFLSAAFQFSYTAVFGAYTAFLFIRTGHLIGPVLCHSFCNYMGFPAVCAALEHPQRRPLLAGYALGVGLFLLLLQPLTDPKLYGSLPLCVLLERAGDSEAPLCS

[3] = system: Icmt+/+ mouse embryonic fibroblasts; test: Cell growth determination, wild-type fibroblasts; type: cell-based; details: 15, 20, 30 μM; 10% serum; six days
Protocol: FIGS. 2A-2C. […] Media and drug were replaced daily, and cell growth was monitored for six days. Data represent the mean and standard deviation of four replicate wells. (FIG. 2A) Icmt^+/+ cells; (FIG. 2B) Icmt^−/− cells; (C) Icmt^−/− cells stably transfected with a gene expressing human ICMT (Icmt^−/−/ICMT cells).
Cell growth assays were performed in a 96-well plate format. Briefly, 500 to 1000 cells were plated into 96-well plates. After the cells were allowed to attach for 24 h, media was removed and replaced with media containing either compound or vehicle. Media and drug were replaced every 24 h throughout the assay. Cell determinations were made at the times indicated in the respective figure by adding 19 μl of CellTiter 96 AqueousOne solution to each well followed by incubation of the plates in the dark at 37° C. for two hr after which the absorbance at 490 nm was read. Background absorbance from blank wells containing only media with compound or vehicle was subtracted from each test well. Typically, 3-6 replicate wells were employed for each point in each assay.

[4] = system: GFP-tagged K-Ras in MDCK cells; test: Localization of GFP-K-Ras in MDCK cells; type: cell-based; details: 10, 20, 30 μM; 72 h
Protocol: (§1) FIGS. 3A and 3B. Impact of cysmethynil treatment on Ras localization and signaling. FIG. 3A. Mislocalization of GFP Ras in cysmethynil treated cells. […] Live cells were imaged on a spinning disk confocal microscope. FIG. 3B. Impact of cysmethynil treatment on EGF-stimulated protein phosphorylation. […] Where indicated, cells were treated with EGF for the final 10 min prior to harvesting. Cell lysates containing equal amounts of protein were resolved on a 13% SDS-polyacrylamide gel and probed with antiphospho-Akt, antiphospho-p42/44 MAPK or anti-β-tubulin antibody as indicated. MDCK cells stably expressing GFP-H-Ras, GFP-K-Ras or GFP-N-Ras were grown on 35 mm coverslip dishes (MatTek Corporation, Ashland, Mass.) treated with poly-D-lysine. MDCK cells expressing […] were prepared by transient transfection of the Yes-GFP construct (McCabe and Berthiaume, Mol Cell Biol 10:3771-3786 (1999)) using Superfect reagent (Quiagen, Valencia, Calif.) following the manufacturer's instructions. […] Cells were imaged 72 h after drug treatment (24 h for transiently transfected cells) on an Olympus IX70 inverted microscope (Melville, N.Y.) with an UltraView spinning-disk confocal (PerkinElmer LAS, Wellesley, Mass.) and a Krypton/Argon laser, 488 nm line, attached to a cooled-CCD camera (Hamamatsu, Bridgewater, N.J.). […]

[5] = system: Yes-GFP in MDCK cells; test: Localization of Yes-GFP in MDCK cells (control); type: cell-based; details: 10, 20, 30 μM
Protocol: as §1

[6] = system: p42/44 MAPK phosphorylation in DKOB8 colon cancer cells; test: Phosphoprotein analysis: EGF-stimulated p42/44 MAPK; type: cell-based; details: 1 μM, three days, 1% serum, EGF 10 min
Protocol: (§2) FIGS. 3A and 3B. Impact of cysmethynil treatment on Ras localization and signaling. FIG. 3A. Mislocalization of GFP Ras in cysmethynil treated cells. […] Live cells were imaged on a spinning disk confocal microscope. FIG. 3B. Impact of cysmethynil treatment on EGF-stimulated protein phosphorylation. […] Where indicated, cells were treated with EGF for the final 10 min prior to harvesting. Cell lysates containing equal amounts of protein were resolved on a 13% SDS-polyacrylamide gel and probed with antiphospho-Akt, antiphospho-p42/44 MAPK or anti-β-tubulin antibody as indicated. […] Half of the wells were then treated with EGF (10 ng/ml) and half with vehicle for 10 min. Cells were rinsed with PBS and harvested in SDS-PAGE loading buffer. Total cell lysates (30 μg protein) were resolved on 4-20% Tris-glycine polyacrylamide gels (Invitrogen). Proteins were transferred to nitrocellulose and probed with a mix of anti-phospho-Akt and anti-phospho-p42/44 MAPK antibodies, or with anti-tubulin or anti-phospho NFκB antibody (Cell Signaling Technology) as indicated. Visualization was performed with alkaline phosphatase (Promega, Madison, Wis.) as per the manufacturer's instructions.

[7] = system: Akt phosphorylation in DKOB8 colon cancer cells; test: Phosphoprotein analysis: EGF-stimulated Akt; type: cell-based; details: 1 μM, three days, 1% serum, EGF 10 min
Protocol: as §2

[8] = system: RhoA in MDA-MB-231 breast cancer cells; test: Immunoblot of steady-state Rho level; type: cell-based; details: 20 μM, 6 day treatment
Protocol: The impact of Icmt inhibition on function of the geranylgeranylated GTPases Rho and Rac in cells has been examined. This study was carried out in MD-MBA-231 breast cancer cells. Tumorigenesis and metastatic behavior of these cells is dependent on high levels of Rho GTPases in particular. […] Cells were harvested and lysates containing equal amounts of protein were resolved by SDS-PAGE and subjected to immunoblot analysis with specific antibodies to RhoA (FIG. 7A), or Rac1 (FIG. 7B). As a control, immunoblot analysis for α-tubulin was carried out on all samples.

CCCCCCCCn1cc(CC(N)=O)c2cc(-c3cccc(C)c3)ccc21 [cysmethynil, 2-[5-(3-methylphenyl)-1-octyl-1H-indol-3-yl]acetamide]
inhibition of FTase [1]: did not inhibit
inhibition of Rce1 protease [2]: did not inhibit
cell growth [3]: dose-dependent inhibition of growth
localization of GFP-K-Ras [4]: dose-dependent mislocalization
plasma membrane localization of Yes-GFP [5]: did not affect
EGF-induced increase in MAPK [6]: almost completely blocked
EGF-induced increase in Akt phosphorylation [7]: partially but not completely attenuated
Rho levels [8]: almost undetectable
